Assay results published in US20250154150A1, “SUBSTITUTED FUSED RING COMPOUND, PHARMACEUTICAL COMPOSITION THEREOF, PREPARATION METHOD THEREFOR AND USES THEREOF” (SUZHOU YABAO PHARMACEUTICAL R&D CO., LTD., priority 2022, published 2025).

Tests used:
[1] = biological target: LRRK2 G2019S (Homo sapiens (Human), UniProt Q5S007, G2019S); assay: Kinase inhibition assay (ADP-Glo, LRRKtide substrate); assay type: biochemical; details: LRRK2 G2019S protein, room temperature
Method: Kinase LRRK2 G2019S protein was derived from Carna, LRRKtide was derived from Signalchem, ATP was derived from Promega, and DMSO was derived from Sigma.
All assays were performed at room temperature. The test compounds were dissolved and diluted, and then added to a 384-well plate. 2.5 μL of 2× kinase reaction buffer was added, and the mixture was centrifuged. 2.5 μL of a mixture of 2× substrate and ATP was added, and the mixture was centrifuged. 4 μL of ADP-Glo reagent was added, and the mixture was incubated at room temperature for 40 min. 8 μL of […] was added, and the mixture was incubated at room temperature for 40 min. Then, the data were read using the Envision 2104 multi-label Reader.

[2] = system: LRRK2; assay: In vivo efficacy, oral administration: LRRK2 phosphorylation (pS935-LRRK2/LRRK2) in brain tissue by Western blot; parameters: species or system LRRK2-G2019S mice
Text: 1. Objective: The study aims to determine the in vivo efficacy of compound 527 by observing the inhibition effect of compound 527 on the phosphorylation level of LRRK2 in the brains of G2019S mutant LRRK2 gene knock-in mice following oral administration.
(1) Animals: B6.Cg-Tg(Lrrk2*G2019S)2Yue/J transgenic mice were purchased from Jackson Laboratory. The mice were bred with C57BL/6J mice to produce LRRK2 heterozygote mice carrying the G2019S mutation (LRRK2-G2019S mice). The mice included an equal number of male and female individuals, with body weights ranging from 16-20 g and ages between 15-17 weeks.
(2) Grouping and administration: The mice were randomly divided into 5 experimental groups based on their body weights. Each group consisted of 8 animals, with 4 males and 4 females. The specific administration for each experimental group is detailed in the following Table 1. Group G1 served as the vehicle control group. For group G2 to group G5, compound 527 was administered at doses of 1 mg/kg, 3 mg/kg, 10 mg/kg, and 30 mg/kg, respectively.
(3) Intracerebral LRRK2 activity assay: One hour after administration, the animals were euthanized using CO2. The brain tissues were collected, rapidly frozen in liquid nitrogen, and then cryopreserved at −80 C until subsequent experiments. The brain tissues were homogenized in an RIPA buffer containing cOmplete™ protease inhibitor mixture (Roche, 04693124001) and phosphatase inhibitor mixture 2 (sigma, R^0278). Protein quantification was performed using the BCA method. The phosphorylation level of LRRK2 at pS935 site (primary antibody Anti-LRRK2 (phospho S935) antibody, abcam, ab133450), and the total LRRK2 level (primary antibody Anti-LRRK2 antibody, Abcam, ab33518) were detected by Western blot method. The activity level of LRRK2 in the brain was represented by the phosphorylation level at S935 site of LRRK2, i.e., the ratio of pS935-LRRK2 to total LRRK2 (pS935-LRRK2/LRRK2).

[3] = biological target: LRRK2 (Homo sapiens (Human), UniProt Q5S007); assay: HEK293 cell kinase inhibition assay (NanoBRET); assay type: cell-based; details: HEK293 cells
Sequence of LRRK2 (Homo sapiens (Human), UniProt Q5S007) (Q5S007 whole entry): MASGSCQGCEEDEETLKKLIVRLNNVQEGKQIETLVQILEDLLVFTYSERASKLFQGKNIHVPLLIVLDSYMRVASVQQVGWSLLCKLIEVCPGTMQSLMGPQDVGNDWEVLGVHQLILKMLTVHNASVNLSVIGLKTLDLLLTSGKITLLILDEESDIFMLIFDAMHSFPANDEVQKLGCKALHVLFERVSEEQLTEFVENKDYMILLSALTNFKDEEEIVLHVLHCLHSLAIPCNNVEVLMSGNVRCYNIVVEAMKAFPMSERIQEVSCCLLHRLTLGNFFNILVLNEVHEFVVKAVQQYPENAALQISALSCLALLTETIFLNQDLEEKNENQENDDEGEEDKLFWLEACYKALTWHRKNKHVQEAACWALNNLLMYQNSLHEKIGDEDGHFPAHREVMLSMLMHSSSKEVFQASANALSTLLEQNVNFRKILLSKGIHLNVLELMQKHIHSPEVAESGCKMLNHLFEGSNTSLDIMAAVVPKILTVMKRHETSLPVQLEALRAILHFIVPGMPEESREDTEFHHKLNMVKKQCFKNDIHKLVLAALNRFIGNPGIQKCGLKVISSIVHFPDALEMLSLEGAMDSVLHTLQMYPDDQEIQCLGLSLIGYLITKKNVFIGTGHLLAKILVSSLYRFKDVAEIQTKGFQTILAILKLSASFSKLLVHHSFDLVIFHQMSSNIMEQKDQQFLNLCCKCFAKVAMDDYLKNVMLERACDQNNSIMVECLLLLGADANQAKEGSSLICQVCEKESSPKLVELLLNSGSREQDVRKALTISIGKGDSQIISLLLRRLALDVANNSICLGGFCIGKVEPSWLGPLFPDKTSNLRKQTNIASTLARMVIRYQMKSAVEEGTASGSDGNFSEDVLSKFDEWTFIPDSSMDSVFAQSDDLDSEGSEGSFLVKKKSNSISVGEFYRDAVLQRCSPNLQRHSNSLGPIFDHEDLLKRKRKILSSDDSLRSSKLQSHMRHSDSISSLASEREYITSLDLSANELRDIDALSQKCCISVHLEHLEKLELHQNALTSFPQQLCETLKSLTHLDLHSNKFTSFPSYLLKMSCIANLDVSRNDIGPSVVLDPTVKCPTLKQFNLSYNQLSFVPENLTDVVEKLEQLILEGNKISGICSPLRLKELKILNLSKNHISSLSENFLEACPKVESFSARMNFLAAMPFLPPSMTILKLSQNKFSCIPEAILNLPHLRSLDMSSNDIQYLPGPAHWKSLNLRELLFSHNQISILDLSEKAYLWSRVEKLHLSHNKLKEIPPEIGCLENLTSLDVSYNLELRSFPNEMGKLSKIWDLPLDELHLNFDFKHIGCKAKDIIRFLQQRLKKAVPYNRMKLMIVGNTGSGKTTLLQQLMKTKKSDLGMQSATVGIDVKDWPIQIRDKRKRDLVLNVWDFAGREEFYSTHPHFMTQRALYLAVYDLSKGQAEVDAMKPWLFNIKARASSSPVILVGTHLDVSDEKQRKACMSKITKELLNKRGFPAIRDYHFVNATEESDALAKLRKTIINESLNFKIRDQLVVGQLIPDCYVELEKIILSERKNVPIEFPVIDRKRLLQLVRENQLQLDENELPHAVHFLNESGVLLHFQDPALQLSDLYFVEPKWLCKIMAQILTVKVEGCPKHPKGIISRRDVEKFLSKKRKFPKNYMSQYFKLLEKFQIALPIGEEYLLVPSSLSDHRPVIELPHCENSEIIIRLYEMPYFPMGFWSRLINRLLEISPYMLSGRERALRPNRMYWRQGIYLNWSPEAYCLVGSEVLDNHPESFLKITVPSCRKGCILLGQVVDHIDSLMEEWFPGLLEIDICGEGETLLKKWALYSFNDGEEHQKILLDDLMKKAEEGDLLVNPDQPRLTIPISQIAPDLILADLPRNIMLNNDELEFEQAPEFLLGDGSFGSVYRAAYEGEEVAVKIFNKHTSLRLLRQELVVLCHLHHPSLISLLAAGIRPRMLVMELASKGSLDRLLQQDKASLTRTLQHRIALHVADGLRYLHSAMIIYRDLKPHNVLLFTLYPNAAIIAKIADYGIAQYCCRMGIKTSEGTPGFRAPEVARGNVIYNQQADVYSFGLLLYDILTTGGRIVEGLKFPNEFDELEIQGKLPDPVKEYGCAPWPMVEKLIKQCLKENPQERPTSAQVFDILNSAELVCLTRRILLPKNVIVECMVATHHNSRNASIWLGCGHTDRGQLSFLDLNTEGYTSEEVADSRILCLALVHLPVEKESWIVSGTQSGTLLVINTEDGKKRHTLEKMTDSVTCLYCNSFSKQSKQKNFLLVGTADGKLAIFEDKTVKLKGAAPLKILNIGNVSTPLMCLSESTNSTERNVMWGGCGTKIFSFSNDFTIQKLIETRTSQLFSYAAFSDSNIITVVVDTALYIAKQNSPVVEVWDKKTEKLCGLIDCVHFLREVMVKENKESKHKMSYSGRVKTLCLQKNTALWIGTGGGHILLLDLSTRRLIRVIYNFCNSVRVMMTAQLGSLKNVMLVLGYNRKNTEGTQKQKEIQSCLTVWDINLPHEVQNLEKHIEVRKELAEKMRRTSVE
Method: (§1) HEK293 cells were cultured, and collected by adding trypsin. Culture medium was added, and the cell density was adjusted to 2×10^5/mL. Liposome-DNA complexes were constructed and mixed with HEK293 cells at a ratio of 1:20. The mixture was added to a 384-well plate, and incubated at 37° C. for 20-30 h. A mixed solution of enzyme substrate and the test compound was added, and the mixture was incubated at room temperature for 2-3 min. NanoBRET reagent (Promega) was added, and bioluminescence was measured within 10 min using the microplate reader (Envision 2104) at 450 nm for the donor luciferase protein (donor) and 610 nm for the acceptor fluorescent group (acceptor). The BRET ratio for the test compounds was calculated using the following formula, including a background correction option.
(§2) [formula] • Acceptorsample: 610 nm fluorescence with the test compound; • Donorsample: 450 nm fluorescence with the test compound; • Acceptorno-tracer control: 610 nm fluorescence of background (without the test compound); • Donorno-tracer control: 450 nm fluorescence of background (without the test compound)
(§3) The inhibitory activity of the test compounds on cellular LRRK2 enzyme was calculated by the following formula: […]
(§4) The IC50 values of the test compounds against cellular LRRK2 enzyme were calculated using Graphpad software. Non-linear regression fitting (dose-effect−variable slope method) was performed on the percentage inhibition rate versus logarithmic concentration curve of the compounds.
(§5) [formula] • X: logarithmic inhibitor concentration; Y: percentage inhibition rate; Bottom: a minimum value; Top: a maximum value; Hill Slope: hill slope

[4] = biological target: LRRK2-2019S (Homo sapiens (Human), UniProt Q5S007, G2019S); assay: HEK293 cell kinase inhibition assay (NanoBRET); assay type: cell-based; details: HEK293 cells
Sequence of LRRK2-2019S (Q5S007 whole entry G2019S): as the sequence (Q5S007 whole entry) above, with G2019S counted along it
Method: as §1, §2, §3, §4, §5

[5] = biological target: LRRK2-R1441C (Homo sapiens (Human), UniProt Q5S007, R1441C); assay: HEK293 cell kinase inhibition assay (NanoBRET); assay type: cell-based; details: HEK293 cells
Sequence of LRRK2-R1441C (Q5S007 whole entry R1441C): as the sequence (Q5S007 whole entry) above, with R1441C counted along it
Method: as §1, §2, §3, §4, §5

[6] = LRRK2-G2019S mice, oral gavage, single dose, brain collected 1 h after administration

Sequence of LRRK2 G2019S (Q5S007 whole entry G2019S): as the sequence (Q5S007 whole entry) above, with G2019S counted along it

Row | IC50 [1] | Structure (SMILES) | further results
1 | 5.1 nM | O[C@@H]1C[C@H](O)CN(c2cc(-c3n[nH]c4ccnc(NCC(F)(F)F)c34)ncn2)C1 [Compound 526, (3S,5R)-1-(6-(4-((2,2,2-trifluoroethyl)amino)-1H-pyrazolo[4,3-c]pyridin-3-yl)pyrimidin-4-yl)piperidine-3,5-diol] | –
2 | 12 nM | FC(F)(F)CNc1nccc2[nH]nc(-c3ccccn3)c12 [Control compound, reference compound] | –
3 | 1.2 nM | C[C@@H]1CN(c2cc(-c3n[nH]c4ccnc(N[C@H](C)C(F)(F)F)c34)ncn2)C[C@H](C)O1 [Compound 527] | inhibition of the phosphorylation of LRRK2 in the brain tissues ([2]; 30 mg/kg oral gavage, 1 h, LRRK2-G2019S mice, stated as the definition of the maximum effective dose): 60%; effective dose for inhibiting the phosphorylation of LRRK2 in the brain tissues [2, 6]: 10 mg/kg; maximum effective dose (defined as 60% inhibition of the phosphorylation of LRRK2) [2, 6]: 30 mg/kg; human equivalent dose corresponding to the effective dose ([2]; calculated for a body weight of 70 kg, from 10 mg/kg in mice): 57 mg; human equivalent dose corresponding to the maximum effective dose ([2]; calculated for a body weight of 70 kg, from 30 mg/kg in mice): 171 mg; IC50 [3]: 24.7 nM; IC50 [4]: 16.3 nM; IC50 [5]: 45.9 nM
4 | 2.4 nM | FC(F)(F)CNc1nccc2[nH]nc(-c3cc(N4C[C@H]5C[C@@H]4CO5)ncn3)c12 [Compound 487] | –
5 | 3.7 nM | C[C@@H]1C[C@H](Nc2nccc3[nH]nc(-c4cc(N5C[C@@H]6C[C@H]5CO6)ncn4)c23)C[C@H](C)O1 [Compound 424] | –
6 | 3.1 nM | FC(F)(F)CNc1nccc2[nH]nc(-c3cc(N4C[C@@H]5C[C@H]4CO5)ncn3)c12 [Compound 486] | –
7 | 1.3 nM | C[C@H]1CN(c2cc(-c3n[nH]c4ccnc(N[C@H](C)C(F)(F)F)c34)ncn2)C[C@H](C)O1 [Compound 561] | –
8 | 9.5 nM | C[C@@H]1CN(c2cc(-c3n[nH]c4ccnc(NC5(C)CC5)c34)ncn2)C[C@H](C)O1 [Compound 391] | –
9 | 1.6 nM | C[C@@H]1CN(c2cc(-c3n[nH]c4ccnc(N[C@@H](C)C(F)(F)F)c34)ncn2)C[C@H](C)O1 [Compound 528] | –
10 | 36.5 nM | C[C@@H]1C[C@@H](Nc2nccc3[nH]nc(-c4cc(N5C[C@H]6C[C@@H]5CO6)ncn4)c23)C[C@H](C)O1 [Compound 440] | –
11 | 2.8 nM | C[C@@H]1CN(c2cc(-c3n[nH]c4ccnc(NCC(F)(F)F)c34)ncn2)C[C@H](C)O1 [Compound 447] | IC50 [3]: 247 nM; IC50 [4]: 97.5 nM; IC50 [5]: 297 nM
12 | 2.4 nM | N#CC1(c2cc(-c3n[nH]c4ccnc(NCC(F)(F)F)c34)ncn2)CCC1 [Compound 523, 1-(6-(4-((2,2,2-trifluoroethyl)amino)-1H-pyrazolo[4,3-c]pyridin-3-yl)pyrimidin-4-yl)cyclobutane-1-carbonitrile] | –
13 | 1.9 nM | C[C@@H]1C[C@H](Nc2nccc3[nH]nc(-c4cc(N5C[C@H]6C[C@@H]5CO6)ncn4)c23)C[C@H](C)O1 [Compound 425] | –
14 | 27.7 nM | CC(C)n1cc(-c2n[nH]c3ccnc(NCC(F)(F)F)c23)cn1 [Compound 515] | –

Row | Structure (SMILES) | IC50 [1] | further results
15 | FC(F)(F)CNc1nccc2[nH]nc(-c3cc(N4C5CCC4COC5)ncn3)c12 [Compound 520] | 4.8 nM | –
16 | C[C@@H]1C[C@H](Nc2nccc3[nH]nc(-c4cc(N5C[C@@H](C)O[C@@H](C)C5)ncn4)c23)C[C@H](C)O1 [Compound 407, 3-(6-((2S,6R)-2,6-dimethylmorpholinyl)pyrimidin-4-yl)-N-((2R,4R,6S)-2,6-dimethyltetrahydro-2H-pyran-4-yl)-1H-pyrazolo[4,3-c]pyridine-4-amine] | 2.2 nM | –
